Laboratory results published in the NIST ThermoML archive (doi:10.1021/acs.jced.7b01035).

Assay: wn = mass fraction of the nth substance listed
Details: 500 kPa, Liquid, Concentric cylinders viscometry

NCCCO [3-amino-1-propanol] + O
viscosity [mPa·s]
Details	w1 = 0.1	w1 = 0.2	w1 = 0.3	w1 = 0.4	w1 = 0.5	w1 = 0.6	w1 = 0.7	w1 = 0.8	w1 = 0.9	w1 = 1
298.15 K	1.27	1.84	2.95	4.76	7.58	12.17	18.56	26.23	29.26	30.43
303.15 K	1.14	1.62	2.5	3.97	6.18	9.64	14.5	20.98	22.76	23.87
308.15 K	1.01	1.41	2.15	3.34	5.1	7.69	11.48	15.73	17.96	19.07
313.15 K	0.89	1.25	1.82	2.82	4.23	6.25	9.21	12.52	14.36	15.27
318.15 K	0.81	1.12	1.59	2.42	3.59	5.17	7.5	10.09	11.6	12.36
323.15 K	0.75	1.01	1.4	2.11	3.07	4.34	6.17	8.24	9.47	10.22
328.15 K	0.72	0.92	1.24	1.86	2.65	3.69	5.14	6.81	7.78	8.54
333.15 K	0.66	0.84	1.1	1.66	2.31	3.17	4.33	5.68	6.47	7.12
338.15 K	0.61	0.76	0.99	1.47	2.03	2.74	3.67	4.79	5.43	6.05
343.15 K	0.58	0.73	0.9	1.32	1.81	2.39	3.15	4.08	4.61	4.84
348.15 K	0.57	0.7	0.82	1.2	1.64	2.09	2.72	3.51	3.93	4.17
353.15 K	0.55	0.67	0.75	1.08	1.46	1.85	2.37	3.03	3.39	3.63
358.15 K	0.41	0.54	0.69	0.99	1.32	1.68	2.09	2.7	2.93	3.19
363.15 K	0.39	0.49	0.65	0.93	1.25	1.51	1.86	2.4	2.56	2.73
368.15 K	0.37	0.47	0.63	0.88	1.16	1.37	1.66	2.13	2.24	2.52
373.15 K	0.35	0.44	0.59	0.82	1.05	1.26	1.49	1.91	1.98	2.25
